Laboratory results as given in US20110112135A1, “Imidazo [1,2-A] Pyridine Compounds” (priority 2007, published 2011).

Key:
[1] = tested on: ABCA1 gene; assay: Quantitative analysis of ABCA1 gene regulation in THP-1 cells (real-time PCR); format: cell-based, human; details: for Emax: Gene regulation by LXR (Human), differentiated THP-1 cells, 18 hrs, LXR agonist reference at 1.0 uM as positive control, read-out: Agonism ABCA1; for EC50: Homo sapiens, THP-1, 18 h, read-out: EC50 ABCA1
Experimental: III. Quantitative Analysis of ABCA1 Gene Regulation in THP-1 Cells. The compounds of formula (I) effect on the regulation of the ABCA1 gene was evaluated using the following procedure. Materials and Methods Cell culture: The THP-1 monocytic cell line (ATCC #TIB-202) was obtained from American Type Culture Collection (Manassas, Va.) and cultured in RPMI 1640 medium (Gibco, Carlsbad, Calif.) containing 10% FBS, 2 mM L-glutamine, and 55 uM beta-Mercaptoethanol (BME). […] Louis, Mo.) for three days to induce differentiation into adherent macrophages. Differentiated THP-1 cells were treated with test compounds or ligands dissolved in DMSO (Sigma, D-8779) in culture medium lacking phorbal ester. […] Dose response effects were measured in duplicate, in the range of 0.001 to 30 micromolar concentrations and treated cells were incubated for an additional 18 hrs prior to RNA isolation. Unstimulated cells treated with vehicle were included as negative controls on each plate. […] L., J. Med. Chem. (2000), 45:1963-1966.). Results of antagonist analysis are expressed as % antagonism and IC50 (in μM). RNA isolation and quantitation: Total cellular RNA was isolated from treated cells cultured in 96-well plates using PrepStation 6100 (Applied Biosystems, Foster City, Calif.), according to the manufacturer's recommendations. RNA was resuspended in ribonuclease-free water and stored at -70° C. prior to analysis. RNA concentrations were quantitated with RiboGreen test procedure, #R-11490 (Molecular Probes, Eugene, Oreg.). Gene expression analysis: Gene-specific mRNA quantitation was performed by real-time PCR with the Perkin Elmer Corp. chemistry on an ABI Prism 7700 Sequence detection system (Applied Biosystems, Foster City, Calif.) according to the manufacturer's instructions. Samples (50-100 ng) of total RNA were assayed in duplicate or triplicate in 50 ul reactions using one-step RT-PCR and the standard curve method to estimate specific mRNA concentrations. Sequences of gene-specific primer and probe sets were designed with Primer Express Software (Applied Biosystems, Foster City, Calif.). […] Relative levels of ABCA1 mRNA are normalized using GAPDH mRNA or 18S rRNA probe/primer sets purchased commercially (Applied Biosystems, Foster City, Calif.). Statistics: Mean, standard deviation and statistical significance of duplicate evaluations of RNA samples were assessed using ANOVA, one-way analysis of variance using SAS analysis. Reagents: -GAPDH Probe and Primers-Taqman GAPDH Control Reagents 402869 or 4310884E 18S Ribosomal RNA-Taqman 18S Control Reagents 4308329 […] Qiagen Quantitect probe RT-PCR 204443.

[2] = target: T1, human LXRβ (Homo sapiens, UniProt P55055); assay: Ligand-binding test procedure for human LXRβ (3H T0901317 tracer, flash plates); details: biotinylated hLXRβ from E. coli extract; tracer 3H T0901317
T1 construct: biotin (biotinylated); made in house; host or cells: E. coli (crude extract)
T1 sequence (P55055 1-460): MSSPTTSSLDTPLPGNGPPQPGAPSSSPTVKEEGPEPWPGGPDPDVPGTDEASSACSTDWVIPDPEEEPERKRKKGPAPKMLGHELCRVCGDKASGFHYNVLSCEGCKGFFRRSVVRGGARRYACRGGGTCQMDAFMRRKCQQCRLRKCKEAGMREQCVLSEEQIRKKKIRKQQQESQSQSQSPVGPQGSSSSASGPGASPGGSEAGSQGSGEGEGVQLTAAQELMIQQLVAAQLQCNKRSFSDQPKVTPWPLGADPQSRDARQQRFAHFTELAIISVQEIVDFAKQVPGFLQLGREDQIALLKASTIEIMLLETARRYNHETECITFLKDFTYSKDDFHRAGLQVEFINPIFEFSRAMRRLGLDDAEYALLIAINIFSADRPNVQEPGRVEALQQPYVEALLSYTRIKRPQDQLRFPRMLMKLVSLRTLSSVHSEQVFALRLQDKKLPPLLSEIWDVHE
Experimental: I. Ligand-Binding Test Procedure for Human LXRβ.
Receptor source: E. coli extract from cells expressing biotinylated hLXRβ. Extract was made in a similar buffer as above, but with 50 mM TRIS.
(§1) Washed streptavidin and coated flash plates with wash buffer. Diluted receptor extract to give Bmax ˜4000 cpm and add to the wells. Wrapped the plates in aluminum foil and stored them at +4° C. over night.
(§2) Made a dilution series in DMSO of the test ligands. Made a 5 nM solution of the radioactive tracer in buffer. Mixed 250 μl diluted tracer with 5 μl of the test ligand from each concentration of the dilution series. Washed the receptor-coated flash plates. Added 200 μl per well of the ligand/radiolabel mixture to the receptor-coated flash plates. Wrapped the plates in aluminum foil and incubate at +4° C. over night.
(§3) Aspirated wells, and wash the flashed plates. Sealed the plate. Measured the remaining radioactivity in the plate.

[3] = target: T2, human LXRα (Homo sapiens, UniProt Q13133); assay: Ligand-binding test procedure for human LXRα (3H T0901317 tracer, flash plates); details: biotinylated hLXRα from E. coli extract; tracer 3H T0901317
T2 construct: biotin (biotinylated); made in house; host or cells: E. coli (crude extract)
T2 sequence (Q13133 1-447): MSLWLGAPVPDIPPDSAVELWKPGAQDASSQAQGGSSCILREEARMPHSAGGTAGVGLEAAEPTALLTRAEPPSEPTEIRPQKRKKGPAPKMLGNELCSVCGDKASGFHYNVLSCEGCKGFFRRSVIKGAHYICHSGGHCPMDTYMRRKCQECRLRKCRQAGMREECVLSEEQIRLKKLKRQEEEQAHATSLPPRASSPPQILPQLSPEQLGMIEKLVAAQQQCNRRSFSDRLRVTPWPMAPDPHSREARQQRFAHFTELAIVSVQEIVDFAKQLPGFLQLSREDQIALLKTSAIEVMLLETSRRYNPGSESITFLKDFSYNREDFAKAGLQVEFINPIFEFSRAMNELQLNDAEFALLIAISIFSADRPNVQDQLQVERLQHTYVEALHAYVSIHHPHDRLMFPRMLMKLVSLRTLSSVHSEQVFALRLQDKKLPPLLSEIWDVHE
Experimental: II. Ligand-Binding Test Procedure for Human LXRα.
Receptor source: E. coli extract from cells expressing biotinylated hLXRα. Extract was made in a similar buffer as above, but with 50 mM TRIS.
as §1, §2, §3

Compound	IC50 [2] [µM]	IC50 [3] [µM]	Emax [1] [%]	EC50 [1] [µM]
CCS(=O)(=O)c1cccc(Oc2cccc(-c3c(C)nc4c(C(F)(F)F)cccn34)c2)c1 [Example 10, 2-methyl-3-(3-(3-(ethylsulfonyl)phenoxy)phenyl)-8-(trifluoromethyl)imidazo[1,2-a]pyridine]	–	–	91	0.552
CCc1nc2c(C(F)(F)F)cccn2c1-c1cccc(Oc2cccc(S(C)(=O)=O)c2)c1 [Example 17, 2-ethyl-3-(3-(3-(methylsulfonyl)phenoxy)phenyl)-8-(trifluoromethyl)imidazo[1,2-a]pyridine]	–	–	91	0.099
CNS(=O)(=O)c1cccc(Oc2cccc(-c3c(C(C)C)nc4c(Cl)cccn34)c2)c1 [Example 49, 3-[3-(8-chloro-2-isopropylimidazo[1,2-a]pyridin-3-yl)phenoxy]-N-methylbenzenesulfonamide]	–	–	101	0.794
CC(C)c1nc2c(C(F)(F)F)cccn2c1-c1cccc(OCc2cccc(S(C)(=O)=O)c2)c1 [Example 52, 2-isopropyl-3-(3-{[3-(methylsulfonyl)benzyl]oxy}phenyl)-8-(trifluoromethyl)imidazo[1,2-a]pyridine]	–	–	86	2.39
CC(C)c1nc2c(Cl)cccn2c1-c1cccc(Oc2cccc(S(C)(=O)=O)c2)c1 [Example 66, 8-chloro-2-isopropyl-3-{3-[3-(methylsulfonyl)phenoxy]phenyl}imidazo[1,2-a]pyridine]	–	–	74	0.625
CC(C)c1nc2c(C#N)cccn2c1-c1cccc(Oc2cccc(S(C)(=O)=O)c2)c1 [Example 72, 2-isopropyl-3-{3-[3-(methylsulfonyl)phenoxy]phenyl}imidazo[1,2-a]pyridine-8-carbonitrile]	–	–	79	0.51
CC(C)(C)c1nc2c(C(F)(F)F)cccn2c1-c1cccc(Oc2cccc(S(C)(=O)=O)c2)c1 [Example 75, 2-tert-butyl-3-{3-[3-(methylsulfonyl)phenoxy]phenyl}-8-(trifluoromethyl)imidazo[1,2-a]pyridine]	–	–	91	0.395
CC(C)c1nc2c(Cl)cccn2c1-c1cccc(Oc2cccc(S(N)(=O)=O)c2)c1 [Example 98, 3-[3-(8-chloro-2-isopropylimidazo[1,2-a]pyridin-3-yl)phenoxy]benzenesulfonamide]	–	–	66	1.37
CCc1nc2c(C(F)(F)F)cccn2c1-c1cccc(Cc2cccc(S(C)(=O)=O)c2)c1 [Example 100, 2-ethyl-3-{3-[3-(methylsulfonyl)benzyl]phenyl}-8-(trifluoromethyl)imidazo[1,2-a]pyridine]	–	–	82	0.46

Second part, led by results:

IC50 [2] [µM]	IC50 [3] [µM]	Compound	Emax [1] [%]	EC50 [1] [µM]
> 1	> 1	CC(C)c1nc2c(C#N)cccn2c1-c1cccc(Oc2cccc(CS(C)(=O)=O)c2)c1 [Example 115, 2-isopropyl-3-(3-{3-[(methylsulfonyl)methyl]phenoxy}phenyl)imidazo[1,2-a]pyridine-8-carbonitrile]	–	–
0.97	> 1	CC(C)(C)c1nc2c(C#N)cccn2c1-c1cccc(Oc2cccc(CS(C)(=O)=O)c2)c1 [Example 116, 2-tert-butyl-3-(3-{3-[(methylsulfonyl)methyl]phenoxy}phenyl)imidazo[1,2-a]pyridine-8-carbonitrile]	–	–
0.46	> 1	CC(C)c1nc2c(Cl)cccn2c1-c1cccc(Oc2cccc(CS(C)(=O)=O)c2)c1 [Example 117, 8-chloro-2-isopropyl-3-(3-{3-[(methylsulfonyl)methyl]phenoxy}phenyl)imidazo[1,2-a]pyridine]	–	–
> 1	> 1	CCc1nc2c(C#N)cccn2c1-c1cccc(Oc2cccc(CS(C)(=O)=O)c2)c1 [Example 118, 2-ethyl-3-(3-{3-[(methylsulfonyl)methyl]phenoxy}phenyl)imidazo[1,2-a]pyridine-8-carbonitrile]	–	–
0.46	> 1	CC(C)c1nc2c(Cl)cccn2c1-c1ccc(Oc2cccc(S(C)(=O)=O)c2)cc1 [Example 121, 8-chloro-2-(1-methylethyl)-3-{4-[3-(methylsulfonyl)phenoxy]phenyl}imidazo[1,2-a]pyridine]	–	–
0.345	> 1	CCS(=O)(=O)c1cccc(Oc2ccc(-c3c(C(C)C)nc4c(Cl)cccn34)cc2)c1 [Example 122, 8-chloro-3-{4-[3-(ethylsulfonyl)phenoxy]phenyl}-2-(1-methylethyl)imidazo[1,2-a]pyridine]	–	–
0.23	> 1	Cc1nccn1Cc1nc2c(C(F)(F)F)cccn2c1-c1cccc(Oc2cccc(S(C)(=O)=O)c2)c1 [Example 130, 2-[(2-methyl-1H-imidazol-1-yl)methyl]-3-{3-[3-(methylsulfonyl)phenoxy]phenyl}-8-(trifluoromethyl)imidazo[1,2-a]pyridine]	–	–
> 1	> 1	CN(C)Cc1nc2c(C(F)(F)F)cccn2c1-c1cccc(Oc2cccc(S(C)(=O)=O)c2)c1 [Example 137, N,N-dimethyl-1-[3-{3-[3-(methylsulfonyl)phenoxy]phenyl}-8-(trifluoromethyl)imidazo[1,2-a]pyridin-2-yl]methanamine]	–	–
0.069	0.91	CCc1nc2c(C(F)(F)F)cccn2c1-c1cccc(Oc2cccc(S(=O)(=O)CCCC#N)c2)c1 [Example 140, 4-[(3-{3-[2-ethyl-8-(trifluoromethyl)imidazo[1,2-a]pyridin-3-yl]phenoxy}phenyl)sulfonyl]butanenitrile]	–	–
0.7	> 1	CCc1nc2c(C(F)(F)F)cccn2c1-c1cccc(Oc2ccc(C#N)c(S(C)(=O)=O)c2)c1 [Example 141, 4-{3-[2-ethyl-8-(trifluoromethyl)imidazo[1,2-a]pyridin-3-yl]phenoxy}-2-(methylsulfonyl)benzonitrile]	–	–
> 1	> 1	Cc1nc2c(C(F)(F)F)cccn2c1-c1cccc(Oc2ccc(C#N)c(S(C)(=O)=O)c2)c1 [Example 142, 2-(methylsulfonyl)-4-{3-[2-methyl-8-(trifluoromethyl)imidazo[1,2-a]pyridin-3-yl]phenoxy}benzonitrile]	–	–
